We go through three compounds from EP0858509B1, “DNA SEQUENCES ENCODING CMH-1, A CYSTEINE PROTEASE INVOLVED IN APOPTOSIS” (VERTEX PHARMACEUTICALS INCORPORATED, priority 1995, dated 1997).

In the assay the target is T1, CMH-1 (Homo sapiens, UniProt P55210).
T1 construct: we expressed an N-terminal (His)6-tagged CMH-1(Ala24-Gln303) in E. coli; made in house; host or cells: E. coli BL21(DE3), pET-15b
T1 sequence (P55210 24-303): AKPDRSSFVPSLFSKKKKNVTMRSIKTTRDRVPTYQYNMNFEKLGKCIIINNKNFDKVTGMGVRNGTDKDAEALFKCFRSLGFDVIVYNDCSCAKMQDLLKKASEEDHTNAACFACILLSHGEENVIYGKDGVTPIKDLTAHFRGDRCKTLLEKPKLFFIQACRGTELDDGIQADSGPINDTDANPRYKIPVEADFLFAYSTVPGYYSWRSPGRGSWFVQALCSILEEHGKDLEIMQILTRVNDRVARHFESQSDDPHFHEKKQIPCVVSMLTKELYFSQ
T1 sequence (P55210 199-303): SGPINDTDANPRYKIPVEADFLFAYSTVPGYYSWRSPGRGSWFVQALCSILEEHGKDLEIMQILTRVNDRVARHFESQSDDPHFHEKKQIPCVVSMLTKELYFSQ
Kind of assay: Inhibition of in vitro cleavage of 35S-labelled PARP by CMH-1 (SDS-PAGE and fluorography). It is filed as biochemical. Conditions: 35S-labelled PARP as substrate, Fig. 4, panel B. The protocol:
In order to determine the activity of purified CMH-1, we determined whether the protein could cleave ^35[S]-labeled pro-IL-1b and PARP and compared its cleavage activity to purified ICE. We prepared ^35[S]-labeled PARP and IL-1b precursor (pro-IL-1b) by in vitro transcription and translation. Cleavage experiments were carried out as described previously [Y. Gu et al., J. Biol. Chem. (1995)]. Cleavage products were analyzed by SDS-PAGE and fluorography as described in that reference.
Take `CCN1C(=O)C=CC1=O` [N-ethylmaleimide]: the “inhibition of the cleavage activity of CMH-1” value was “inhibited”. For YVAD-CHO, the “inhibition of the cleavage activity of CMH-1” value is listed as “not”. Under `NC(=O)CI` [iodoacetamide] stands “inhibited”.
